Measured values: ChEMBL document CHEMBL1201862, “PubChem BioAssay data set” (2004)
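Briefly, cells in 96-well plates were exposed to five compound concentrations for 48 h, and endpoints were estimated by linear interpolation. GI50 is the concentration that inhibits growth by half.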 The source made the active and inactive calls. Rule as the data show it: active = GI50 up to about 1.1 µM and inactive = higher.

What was measured:
Test in all cases: DTP human tumour cell line panel, 48 h
[1] = tested on: HCC 2998
[2] = tested on: HOP-92
[3] = tested on: IGROV-1
[4] = tested on: KM12
[5] = tested on: Malme-3M
[6] = tested on: OVCAR-8
[7] = tested on: RPMI-8226
[8] = tested on: SF-295
[9] = tested on: SK-MEL-2
[10] = tested on: SNB-19
[11] = tested on: TK-10
[12] = tested on: U-251
[13] = tested on: UACC-257
[14] = tested on: A498
[15] = tested on: CAKI-1
[16] = tested on: OVCAR-4
[17] = tested on: A549

| Structure (SMILES) | GI50 [1] | GI50 [2] | GI50 [3] | GI50 [4] | GI50 [5] | GI50 [6] | GI50 [7] | GI50 [8] | GI50 [9] | GI50 [10] | GI50 [11] | GI50 [12] | GI50 [13] | GI50 [14] | GI50 [15] | GI50 [16] | GI50 [17] |
| --- | --- | --- | --- | --- | --- | --- | --- | --- | --- | --- | --- | --- | --- | --- | --- | --- | --- |
| COc1cc2c(cc1OC)C1c3ccccc3C(C#N)(C2)N(C(=O)c2ccccc2)C1O (configuration not stated) | > 100 µM (inactive) | > 100 µM (inactive) | 47.5 µM (inactive) | 46.5 µM (inactive) | > 100 µM (inactive) | 54.2 µM (inactive) | 45 µM (inactive) | > 100 µM (inactive) | 56.5 µM (inactive) | 59 µM (inactive) | 93.1 µM (inactive) | 56.5 µM (inactive) | 60.7 µM (inactive) | – | – | – | – |
| Fc1cccc(/C=N/C23CC4CC(CC(C4)C2)C3)c1 | > 100 µM (inactive) | > 100 µM (inactive) | > 100 µM (inactive) | > 100 µM (inactive) | > 100 µM (inactive) | > 100 µM (inactive) | > 100 µM (inactive) | > 100 µM (inactive) | > 100 µM (inactive) | > 100 µM (inactive) | > 100 µM (inactive) | > 100 µM (inactive) | > 100 µM (inactive) | > 100 µM (inactive) | > 100 µM (inactive) | > 100 µM (inactive) | – |
| COC(=O)C1=C(O)c2cc3c(cc2[C@H](c2cc(OC)c(OC)c(OC)c2)C1)OCO3 | 1.23 µM (inactive) | 96.8 µM (inactive) | 24.4 µM (inactive) | 23.3 µM (inactive) | 38.1 µM (inactive) | 51.3 µM (inactive) | 23 µM (inactive) | 37.5 µM (inactive) | – | > 100 µM (inactive) | 34.4 µM (inactive) | 44.5 µM (inactive) | 34 µM (inactive) | 22.5 µM (inactive) | 34.8 µM (inactive) | 32.5 µM (inactive) | 57.5 µM (inactive) |
| Clc1ccc(OCc2nnc3n2N=C(c2ccccc2)CS3)cc1 | 16.6 µM (inactive) | 20.9 µM (inactive) | 4.47 µM (inactive) | 15.9 µM (inactive) | 17.9 µM (inactive) | 14.1 µM (inactive) | 10.8 µM (inactive) | 19.3 µM (inactive) | 18 µM (inactive) | 18.7 µM (inactive) | 27.3 µM (inactive) | 17.9 µM (inactive) | 14.9 µM (inactive) | – | 24.9 µM (inactive) | 15.6 µM (inactive) | 16.4 µM (inactive) |
| CS(=O)(=O)N/N=C/CN1C(=O)c2ccccc2C1=O | > 100 µM (inactive) | – | > 100 µM (inactive) | > 100 µM (inactive) | > 100 µM (inactive) | > 100 µM (inactive) | > 100 µM (inactive) | > 100 µM (inactive) | > 100 µM (inactive) | > 100 µM (inactive) | > 100 µM (inactive) | > 100 µM (inactive) | > 100 µM (inactive) | > 100 µM (inactive) | > 100 µM (inactive) | > 100 µM (inactive) | > 100 µM (inactive) |
| CC1(Cl)CC(C)(/C=C/Cl)C(Cl)CC1Cl (configuration not stated) | 17.1 µM (inactive) | 0.615 µM (active) | 12.9 µM (inactive) | 16.6 µM (inactive) | 14.9 µM (inactive) | 16.8 µM (inactive) | – | 15.2 µM (inactive) | 13.5 µM (inactive) | 17.4 µM (inactive) | 26.1 µM (inactive) | 16.9 µM (inactive) | – | 19.2 µM (inactive) | 16.1 µM (inactive) | 17.7 µM (inactive) | 14 µM (inactive) |
| CC1=CCCC2C(C=O)(C1)CC(C)C2(CO)CC/C(=C/CO)CO (configuration not stated) | > 100 µM (inactive) | 30 µM (inactive) | > 100 µM (inactive) | > 100 µM (inactive) | > 100 µM (inactive) | > 100 µM (inactive) | 67.3 µM (inactive) | > 100 µM (inactive) | – | – | > 100 µM (inactive) | > 100 µM (inactive) | 98.9 µM (inactive) | > 100 µM (inactive) | 57.3 µM (inactive) | – | > 100 µM (inactive) |
| CCN(c1n[n+]2c(-c3ccccc3)csc2s1)c1n[n+]2c(-c3ccccc3)csc2s1 | > 100 µM (inactive) | > 100 µM (inactive) | > 100 µM (inactive) | 30.8 µM (inactive) | 23.3 µM (inactive) | 74.3 µM (inactive) | 29.6 µM (inactive) | > 100 µM (inactive) | 44.1 µM (inactive) | > 100 µM (inactive) | > 100 µM (inactive) | > 100 µM (inactive) | 36.9 µM (inactive) | – | – | 35.4 µM (inactive) | > 100 µM (inactive) |
| Cc1c(C(=O)/C=C/c2ccccc2)[n+]([O-])c2ccccc2[n+]1[O-] | 16.6 µM (inactive) | 11.6 µM (inactive) | 17.5 µM (inactive) | 15.9 µM (inactive) | 17.7 µM (inactive) | 15 µM (inactive) | 17.8 µM (inactive) | 16.4 µM (inactive) | – | 15.7 µM (inactive) | 26.2 µM (inactive) | 15.3 µM (inactive) | 16.6 µM (inactive) | 15.8 µM (inactive) | 17.5 µM (inactive) | 15 µM (inactive) | 18.4 µM (inactive) |
